Source: the kinase profiling compilation of Christmann-Franck et al. (2016)

What was measured:
Assay in all cases: SelectScreen, TR FRET
Details in all cases: compound 5.0 µM
TBK1 (human) = TBK1 (human) (UniProt Q9UHD2)
AURKA (human) = AURKA (human) (UniProt O14965)
FES (human) = FES (human) (UniProt P07332)
MAPK12 (human) = MAPK12 (human) (UniProt P53778)
EPHA3 (human) = EPHA3 (human) (UniProt P29320)
MAP4K5 (human) = MAP4K5 (human) (UniProt Q9Y4K4)
CHEK1 (human) = CHEK1 (human) (UniProt O14757)
MAP2K2 (human) = MAP2K2 (human) (UniProt P36507)
RPS6KB1 (human) = RPS6KB1 (human) (UniProt P23443)
PRKCZ (human) = PRKCZ (human) (UniProt Q05513)
Chain of PRKCZ (human) (Q05513 whole entry, looked up): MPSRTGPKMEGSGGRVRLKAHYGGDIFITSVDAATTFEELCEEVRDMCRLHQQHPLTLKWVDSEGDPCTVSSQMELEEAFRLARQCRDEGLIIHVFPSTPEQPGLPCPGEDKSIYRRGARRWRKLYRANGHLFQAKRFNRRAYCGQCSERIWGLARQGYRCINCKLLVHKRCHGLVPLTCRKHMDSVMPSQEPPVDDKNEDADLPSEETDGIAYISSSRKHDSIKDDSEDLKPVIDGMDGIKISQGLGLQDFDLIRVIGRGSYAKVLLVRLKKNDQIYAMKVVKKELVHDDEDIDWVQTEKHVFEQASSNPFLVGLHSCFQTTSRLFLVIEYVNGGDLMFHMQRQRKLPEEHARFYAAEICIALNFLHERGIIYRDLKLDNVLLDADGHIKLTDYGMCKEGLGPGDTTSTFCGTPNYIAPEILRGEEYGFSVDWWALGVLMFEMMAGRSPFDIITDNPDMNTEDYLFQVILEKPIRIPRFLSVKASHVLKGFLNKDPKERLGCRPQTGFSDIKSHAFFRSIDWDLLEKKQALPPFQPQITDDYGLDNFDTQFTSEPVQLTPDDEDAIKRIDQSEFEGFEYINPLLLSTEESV

PRKD2 (human) = PRKD2 (human) (UniProt Q9BZL6)
STK3 (human) = STK3 (human) (UniProt Q13188)
TSSK2 (human) = TSSK2 (human) (UniProt Q96PF2)
CSNK1E (human) = CSNK1E (human) (UniProt P49674)
IGF1R (human) = IGF1R (human) (UniProt P08069)
STK4 (human) = STK4 (human) (UniProt Q13043)
GRK4 (human) = GRK4 (human) (UniProt P32298)
PRKD3 (human) = PRKD3 (human) (UniProt O94806)
MERTK (human) = MERTK (human) (UniProt Q12866)
PLK1 (human) = PLK1 (human) (UniProt P53350)
Chain of PLK1 (human) (P53350 whole entry, looked up): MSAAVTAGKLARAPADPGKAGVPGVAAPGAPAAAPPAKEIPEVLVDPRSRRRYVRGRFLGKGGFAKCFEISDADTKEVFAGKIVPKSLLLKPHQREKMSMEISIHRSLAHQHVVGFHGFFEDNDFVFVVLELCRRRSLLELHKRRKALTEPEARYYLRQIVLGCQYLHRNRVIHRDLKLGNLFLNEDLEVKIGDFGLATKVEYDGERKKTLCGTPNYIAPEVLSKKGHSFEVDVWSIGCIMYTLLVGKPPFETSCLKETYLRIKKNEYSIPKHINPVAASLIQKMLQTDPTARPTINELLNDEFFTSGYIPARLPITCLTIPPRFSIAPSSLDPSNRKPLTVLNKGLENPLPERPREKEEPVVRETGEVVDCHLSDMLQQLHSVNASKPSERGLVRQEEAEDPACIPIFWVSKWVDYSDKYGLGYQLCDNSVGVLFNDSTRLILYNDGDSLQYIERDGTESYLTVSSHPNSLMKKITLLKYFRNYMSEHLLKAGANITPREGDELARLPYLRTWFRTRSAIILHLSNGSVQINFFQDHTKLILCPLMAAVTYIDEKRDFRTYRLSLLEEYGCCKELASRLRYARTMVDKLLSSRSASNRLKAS

PKN1 (human) = PKN1 (human) (UniProt Q16512)
CHEK2 (human) = CHEK2 (human) (UniProt O96017)
MAPK1 (human) = MAPK1 (human) (UniProt P28482)
Chain of MAPK1 (human) (P28482 whole entry, looked up): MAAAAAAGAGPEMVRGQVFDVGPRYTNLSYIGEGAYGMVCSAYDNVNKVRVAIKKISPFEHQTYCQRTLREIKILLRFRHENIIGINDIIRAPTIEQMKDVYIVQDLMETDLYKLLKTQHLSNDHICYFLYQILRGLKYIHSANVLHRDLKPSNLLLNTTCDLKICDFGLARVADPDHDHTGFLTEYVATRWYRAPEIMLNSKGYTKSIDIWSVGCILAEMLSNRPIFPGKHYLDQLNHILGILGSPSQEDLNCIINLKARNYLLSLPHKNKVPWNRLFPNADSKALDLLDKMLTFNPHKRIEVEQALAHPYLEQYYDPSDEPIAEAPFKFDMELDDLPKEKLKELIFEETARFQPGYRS

FRK (human) = FRK (human) (UniProt P42685)
NTRK3 (human) = NTRK3 (human) (UniProt Q16288)
Chain of NTRK3 (human) (Q16288 whole entry, looked up): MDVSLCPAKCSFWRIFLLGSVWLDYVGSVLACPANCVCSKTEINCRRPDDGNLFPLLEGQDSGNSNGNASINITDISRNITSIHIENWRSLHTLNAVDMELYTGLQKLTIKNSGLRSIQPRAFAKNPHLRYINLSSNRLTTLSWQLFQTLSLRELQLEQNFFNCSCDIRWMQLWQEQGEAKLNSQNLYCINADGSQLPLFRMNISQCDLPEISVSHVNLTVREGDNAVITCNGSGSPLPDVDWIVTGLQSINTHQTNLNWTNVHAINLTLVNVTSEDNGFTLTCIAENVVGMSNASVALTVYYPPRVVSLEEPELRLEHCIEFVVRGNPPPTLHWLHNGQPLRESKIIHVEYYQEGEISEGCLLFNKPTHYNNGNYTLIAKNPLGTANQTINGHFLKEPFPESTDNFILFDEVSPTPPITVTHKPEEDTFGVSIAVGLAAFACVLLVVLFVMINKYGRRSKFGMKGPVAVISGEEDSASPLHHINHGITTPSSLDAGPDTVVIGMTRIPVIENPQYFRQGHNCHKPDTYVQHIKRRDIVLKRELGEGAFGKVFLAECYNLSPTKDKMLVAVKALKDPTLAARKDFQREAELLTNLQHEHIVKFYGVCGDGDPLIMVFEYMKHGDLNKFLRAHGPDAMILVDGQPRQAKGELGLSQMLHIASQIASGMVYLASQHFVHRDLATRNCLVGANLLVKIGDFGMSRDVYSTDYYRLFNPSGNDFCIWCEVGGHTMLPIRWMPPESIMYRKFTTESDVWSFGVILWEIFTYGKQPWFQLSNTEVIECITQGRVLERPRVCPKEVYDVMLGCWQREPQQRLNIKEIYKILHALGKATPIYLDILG

EPHB3 (human) = EPHB3 (human) (UniProt P54753)
ITK (human) = ITK (human) (UniProt Q08881)
CAMK2D (human) = CAMK2D (human) (UniProt Q13557)
RPS6KA1 KD1 KD2 (human) = RPS6KA1 KD1 KD2 (human) (UniProt Q15418)
TEK (human) = TEK (human) (UniProt Q02763)
Chain of TEK (human) (Q02763 whole entry, looked up): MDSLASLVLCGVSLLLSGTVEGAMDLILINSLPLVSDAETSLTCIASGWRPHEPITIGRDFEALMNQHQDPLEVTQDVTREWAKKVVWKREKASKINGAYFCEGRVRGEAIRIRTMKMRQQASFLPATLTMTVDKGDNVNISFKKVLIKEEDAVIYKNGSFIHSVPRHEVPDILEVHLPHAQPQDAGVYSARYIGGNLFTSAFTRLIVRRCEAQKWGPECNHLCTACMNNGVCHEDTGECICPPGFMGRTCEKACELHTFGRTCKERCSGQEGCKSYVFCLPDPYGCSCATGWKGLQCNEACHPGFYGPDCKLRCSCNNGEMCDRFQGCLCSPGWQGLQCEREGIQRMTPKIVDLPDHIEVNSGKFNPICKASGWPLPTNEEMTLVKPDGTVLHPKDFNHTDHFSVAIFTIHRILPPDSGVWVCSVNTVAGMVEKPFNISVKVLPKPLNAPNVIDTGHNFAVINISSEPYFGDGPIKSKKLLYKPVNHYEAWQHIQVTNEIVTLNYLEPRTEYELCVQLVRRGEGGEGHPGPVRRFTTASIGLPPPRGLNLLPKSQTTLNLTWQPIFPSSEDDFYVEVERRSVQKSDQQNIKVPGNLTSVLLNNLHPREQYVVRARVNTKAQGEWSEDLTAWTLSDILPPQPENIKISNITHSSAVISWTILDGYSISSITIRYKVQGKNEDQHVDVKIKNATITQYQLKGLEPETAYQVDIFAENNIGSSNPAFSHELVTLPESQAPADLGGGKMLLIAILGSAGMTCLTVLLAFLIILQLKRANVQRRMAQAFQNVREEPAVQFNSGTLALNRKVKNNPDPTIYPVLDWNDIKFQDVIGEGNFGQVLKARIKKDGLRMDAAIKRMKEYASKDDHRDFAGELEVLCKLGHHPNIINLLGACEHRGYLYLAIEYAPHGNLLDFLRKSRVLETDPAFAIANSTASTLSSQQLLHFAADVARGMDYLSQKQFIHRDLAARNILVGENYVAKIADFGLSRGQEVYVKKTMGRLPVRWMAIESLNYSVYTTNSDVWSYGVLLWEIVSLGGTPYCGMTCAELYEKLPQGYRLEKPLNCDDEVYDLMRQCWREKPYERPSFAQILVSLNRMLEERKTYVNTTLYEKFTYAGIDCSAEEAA

CLK2 (human) = CLK2 (human) (UniProt P49760)
SRMS (human) = SRMS (human) (UniProt Q9H3Y6)
[1] = system: MET (human), P08581 [M1250T]
CSK (human) = CSK (human) (UniProt P41240)
PLK2 (human) = PLK2 (human) (UniProt Q9NYY3)
FGFR3 (human) = FGFR3 (human) (UniProt P22607)
NTRK1 (human) = NTRK1 (human) (UniProt P04629)
EPHB1 (human) = EPHB1 (human) (UniProt P54762)
MAPK13 (human) = MAPK13 (human) (UniProt O15264)
FGR (human) = FGR (human) (UniProt P09769)
Chain of FGR (human) (P09769 whole entry, looked up): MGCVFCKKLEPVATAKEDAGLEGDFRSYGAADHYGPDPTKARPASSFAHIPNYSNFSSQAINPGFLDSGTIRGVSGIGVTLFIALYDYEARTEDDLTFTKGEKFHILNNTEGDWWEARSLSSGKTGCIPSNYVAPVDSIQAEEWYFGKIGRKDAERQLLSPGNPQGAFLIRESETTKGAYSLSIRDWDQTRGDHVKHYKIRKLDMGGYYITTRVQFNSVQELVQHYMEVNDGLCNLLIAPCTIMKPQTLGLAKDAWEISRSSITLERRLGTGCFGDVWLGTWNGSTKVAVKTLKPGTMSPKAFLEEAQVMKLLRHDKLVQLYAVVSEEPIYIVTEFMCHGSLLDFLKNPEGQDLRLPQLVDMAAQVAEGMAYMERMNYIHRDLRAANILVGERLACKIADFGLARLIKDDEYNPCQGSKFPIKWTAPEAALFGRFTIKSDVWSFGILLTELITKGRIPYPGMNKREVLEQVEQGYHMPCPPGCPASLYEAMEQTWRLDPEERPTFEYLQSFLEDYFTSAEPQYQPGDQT

PIM2 (human) = PIM2 (human) (UniProt Q9P1W9)

Chain of MAP4K5 (human) (Q9Y4K4 whole entry, looked up): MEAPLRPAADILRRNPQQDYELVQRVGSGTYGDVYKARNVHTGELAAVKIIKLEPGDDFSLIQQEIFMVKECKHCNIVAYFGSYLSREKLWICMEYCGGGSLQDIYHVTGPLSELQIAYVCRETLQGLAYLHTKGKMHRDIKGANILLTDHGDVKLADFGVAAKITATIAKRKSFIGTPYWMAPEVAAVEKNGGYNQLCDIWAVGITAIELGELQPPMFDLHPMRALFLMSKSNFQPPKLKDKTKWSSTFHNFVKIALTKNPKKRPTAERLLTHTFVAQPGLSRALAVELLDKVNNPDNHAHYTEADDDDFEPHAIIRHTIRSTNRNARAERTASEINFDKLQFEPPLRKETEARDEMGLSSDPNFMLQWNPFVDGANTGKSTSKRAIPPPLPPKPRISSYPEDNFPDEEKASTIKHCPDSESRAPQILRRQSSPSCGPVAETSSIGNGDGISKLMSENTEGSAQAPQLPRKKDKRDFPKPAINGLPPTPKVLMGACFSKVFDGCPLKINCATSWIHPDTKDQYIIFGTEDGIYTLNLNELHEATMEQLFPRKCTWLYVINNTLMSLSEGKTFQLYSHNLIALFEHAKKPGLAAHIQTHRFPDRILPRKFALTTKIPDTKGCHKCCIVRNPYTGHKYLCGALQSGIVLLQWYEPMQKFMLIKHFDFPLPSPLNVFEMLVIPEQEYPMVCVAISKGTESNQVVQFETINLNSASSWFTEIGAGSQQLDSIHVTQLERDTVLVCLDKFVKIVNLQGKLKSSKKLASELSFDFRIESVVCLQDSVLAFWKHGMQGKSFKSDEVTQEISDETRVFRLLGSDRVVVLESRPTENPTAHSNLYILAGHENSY

inhibition (TBK1 (human)): 7%
inhibition (AURKA (human)): 34%
inhibition (FES (human)): 0%
inhibition (MAPK12 (human)): 3%
inhibition (EPHA3 (human)): -2%
inhibition (MAP4K5 (human)): 10%
inhibition (CHEK1 (human)): 3%
inhibition (MAP2K2 (human)): 3%
inhibition (RPS6KB1 (human)): 8%
inhibition (PRKCZ (human)): 2%
inhibition (PRKD2 (human)): 2%
inhibition (STK3 (human)): 5%
inhibition (TSSK2 (human)): -6%
inhibition (CSNK1E (human)): 11%
inhibition (IGF1R (human)): 1%
inhibition (STK4 (human)): 14%
inhibition (GRK4 (human)): 2%
inhibition (PRKD3 (human)): 8%
inhibition (MERTK (human)): 3%
inhibition (PLK1 (human)): 1%
inhibition (PKN1 (human)): 9%
inhibition (CHEK2 (human)): 17%
inhibition (MAPK1 (human)): 6%
inhibition (FRK (human)): 2%
inhibition (NTRK3 (human)): 4%
inhibition (EPHB3 (human)): -1%
inhibition (ITK (human)): 3%
inhibition (CAMK2D (human)): 1%
inhibition (RPS6KA1 KD1 KD2 (human)): 5%
inhibition (TEK (human)): 5%
inhibition (CLK2 (human)): 15%
inhibition (SRMS (human)): 13%
inhibition [1]: 1%
inhibition (CSK (human)): 5%
inhibition (PLK2 (human)): -2%
inhibition (FGFR3 (human)): 2%
inhibition (NTRK1 (human)): 9%
inhibition (EPHB1 (human)): 3%
inhibition (MAPK13 (human)): 2%
inhibition (FGR (human)): 15%
inhibition (PIM2 (human)): 3%
Structure (SMILES): Nc1cc(C(F)(F)F)c(-c2cc(N3CCOCC3)nc(N3CCOCC3)n2)cn1
